Source: patent US10722446B2, “Aqueous oral care compositions” (Colgate-Palmolive Company, priority 2011, dated 2020)

Experiment: Rheological properties (stress controlled AR2000ex rheometer, flow curve and strain sweep)
Format: physicochemical
Source text: The three commercial mouthwashes are a simple fluoride-rinse type mouthwash (comparative formulation 1), a polymer based high fluoride mouthwash (comparative formulation 2), and a mouthwash having a conventional polymer system different from that described in this case (mouthwash 3). The rheological properties of the formulations are quantified using a stress controlled AR2000ex rheometer (TA Instruments) and a cuette type geometry. A flow curve is generated and fit to a power law model to quantify the flow rate index, n. A strain sweep is conducted to quantify the elastic modulus, G′ and the loss modulus, G″.

[1] = flow curve fit to a power law model
[2] = strain sweep, cuette type geometry

O [Newtonian Fluid Example, Water]
k [1]: 1.1 cps
n (flow rate index) [1]: 1.0
G′/G″ (ratio of elastic to viscous components): 0.09
G′ (elastic modulus) [2]: 0.02 dyn/cm2
G″ (loss modulus) [2]: 0.23 dyn/cm2
